As usually defined, the EC50 is the concentration at which the effect is half-maximal.

This test concerns the target T1, human GPR119 (Homo sapiens, UniProt Q8TDV5).
T1 sequence (Q8TDV5 1-308 limits assumed): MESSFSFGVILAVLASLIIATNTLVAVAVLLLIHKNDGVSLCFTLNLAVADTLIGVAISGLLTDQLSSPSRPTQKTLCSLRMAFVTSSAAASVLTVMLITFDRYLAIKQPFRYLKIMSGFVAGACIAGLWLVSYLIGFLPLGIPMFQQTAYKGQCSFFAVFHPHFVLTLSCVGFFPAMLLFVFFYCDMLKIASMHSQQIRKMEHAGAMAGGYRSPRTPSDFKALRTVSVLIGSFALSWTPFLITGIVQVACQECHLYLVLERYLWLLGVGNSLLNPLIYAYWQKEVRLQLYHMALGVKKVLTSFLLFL
The test is described as follows: Measurement of GPR119 signaling (cAMP assay) in cells stably transfected with human GPR119. It is filed as cell-based. The following applies: table column; cAMP stimulation, human GPR119; read-out: GPR119 Human EC50. (In general: Changes in cAMP serve as a functional read-out for many G protein-coupled receptors.)
For the molecule `CC(C)c1noc(N2CCC([C@H]3C[C@H]3CCOc3ccc(CC(=O)N4CCOCC4)cc3)CC2)n1` [Example 133], the concentration for a half-maximal effect (EC50) came out at 6 nM.

Turning to `CC(C)c1noc(N2CCC([C@H]3C[C@H]3CCOc3ccc(CC(=O)N4CC[C@@H](F)C4)cc3)CC2)n1` [Example 134], the EC50 came out at 5.3 nM.

`COC1CN(C(=O)Cc2ccc(OCC[C@@H]3C[C@@H]3C3CCN(c4nc(C(C)C)no4)CC3)cc2)C1` [Example 135]: the concentration for a half-maximal effect (EC50) came to 8.5 nM.

As for `CCN(CC)C(=O)Cc1ccc(OCC[C@@H]2C[C@@H]2C2CCN(c3nc(C(C)C)no3)CC2)cc1` [Example 136], the concentration giving a half-maximal response (EC50) came out at 3.9 nM.

With `CC(C)c1noc(N2CCC([C@H]3C[C@H]3CCOc3ccc(CC(=O)N(C)C)cc3)CC2)n1` [Example 137], the concentration for a half-maximal effect (EC50) is 6.7 nM.

On to `CC(C)c1noc(N2CCC([C@H]3C[C@H]3CCOc3ccc(CC(=O)N4CCC4)c(F)c3)CC2)n1` [Example 138], for which the 50% effective concentration (EC50) is 2 nM.

In the case of `CC(C)c1noc(N2CCC([C@H]3C[C@H]3CCOc3ccc(CC(=O)N4CC(O)C4)c(F)c3)CC2)n1` [Example 139], the EC50 was found to be 6 nM.

Regarding `CC(C)c1noc(N2CCC([C@H]3C[C@H]3CCOc3ccc(CC(=O)N4CC(C)(O)C4)c(F)c3)CC2)n1` [Example 140], the 50% effective concentration (EC50) came out at 3.6 nM.

As to `COC1CN(C(=O)Cc2ccc(OCC[C@@H]3C[C@@H]3C3CCN(c4nc(C(C)C)no4)CC3)cc2F)C1` [Example 141], the EC50 was 0.93 nM.

`CC(C)c1noc(N2CCC([C@H]3C[C@H]3CCOc3ccc(CC(=O)N4CCOCC4)c(F)c3)CC2)n1` [Example 142]: the EC50 was determined as 0.84 nM.

In the case of `CC(C)c1noc(N2CCC([C@H]3C[C@H]3CCOc3ccc(CC(=O)N(C)C)c(F)c3)CC2)n1` [Example 143], the EC50 is 0.94 nM.

As to `CCN(CC)C(=O)Cc1ccc(OCC[C@@H]2C[C@@H]2C2CCN(c3nc(C(C)C)no3)CC2)cc1F` [Example 144], the EC50 was determined as 1.8 nM.

As for `CC(C)c1noc(N2CCC([C@H]3C[C@H]3CCOc3ccc(CC(=O)N4CCCCC4)c(F)c3)CC2)n1` [Example 145], the EC50 amounted to 1.7 nM.

Consider `CC(C)c1noc(N2CCC([C@H]3C[C@H]3CCOc3ccc(CC(=O)N4CCCC4)c(F)c3)CC2)n1` [Example 146], for which the EC50 is 1.2 nM.

`CC(C)c1noc(N2CCC([C@H]3C[C@H]3CCOc3ccc(CC(=O)N4CC(F)(F)C4)c(F)c3)CC2)n1` [Example 147]: the EC50 came out at 0.55 nM.

For the molecule `CC(C)c1noc(N2CCC([C@H]3C[C@H]3CCOc3ccc(CC(=O)N4CCC(F)(F)CC4)c(F)c3)CC2)n1` [Example 148], the EC50 worked out at 1.7 nM.

In the case of `CC(C)c1noc(N2CCC([C@H]3C[C@H]3CCOc3ccc(CC(=O)N4CC(C(C)(C)O)C4)c(F)c3)CC2)n1` [Example 149], the EC50 was 8.2 nM.

For `CC(C)c1noc(N2CCC([C@H]3C[C@H]3CCOc3ccc(CC(=O)NC4CC4)c(F)c3)CC2)n1` [Example 150], the 50% effective concentration (EC50) stood at 2.1 nM.

`CC(C)c1noc(N2CCC([C@H]3C[C@H]3CCOc3ccc(CC(=O)NC4CCC4)c(F)c3)CC2)n1` [Example 151]: the half-maximal effective concentration (EC50) was 3.2 nM.

Turning to `CC(C)c1noc(N2CCC([C@H]3C[C@H]3CCOc3ccc(CC(=O)NC4CC4(F)F)c(F)c3)CC2)n1` (some centres unmarked) [Example 152], the EC50 was found to be 6.3 nM.

In the case of `CC(C)c1noc(N2CCC([C@H]3C[C@H]3CCOc3ccc(CC(=O)NC4(C(F)(F)F)CC4)c(F)c3)CC2)n1` [Example 153], the EC50 is 4.3 nM.

For `CC(C)c1noc(N2CCC([C@H]3C[C@H]3CCOc3ccc(CC(=O)N(C)C4CCCC4)c(F)c3)CC2)n1` [Example 154], the concentration for a half-maximal effect (EC50) stood at 5 nM.

`CC(C)c1noc(N2CCC([C@H]3C[C@H]3CCOc3ccc(CC(=O)NCC4CC4)c(F)c3)CC2)n1` [Example 155]: the EC50 stood at 7.5 nM.

On to `CC(C)c1noc(N2CCC([C@H]3C[C@H]3CCOc3ccc(CC(=O)NC4CCCC4)c(F)c3)CC2)n1` [Example 156], for which the EC50 worked out at 5.4 nM.

For `CC(C)c1noc(N2CCC([C@H]3C[C@H]3CCOc3ccc(CC(=O)NCC(F)(F)F)c(F)c3)CC2)n1` [Example 157], the EC50 was 3.9 nM.

In the case of `CC(C)c1noc(N2CCC([C@H]3C[C@H]3CCOc3ccc(CC(=O)N4C[C@H](F)[C@@H](F)C4)c(F)c3)CC2)n1` [Example 158], the EC50 stood at 1.1 nM.

With `CC(C)c1noc(N2CCC([C@H]3C[C@H]3CCOc3ccc(CC(=O)N4Cc5cccnc5C4)c(F)c3)CC2)n1` [Example 159], the EC50 was found to be 0.93 nM.

As to `CC(C)c1noc(N2CCC([C@H]3C[C@H]3CCOc3ccc(CC(=O)N(C)C4CCOCC4)c(F)c3)CC2)n1` [Example 160], the EC50 stood at 4.8 nM.

In the case of `CC(C)c1noc(N2CCC([C@H]3C[C@H]3CCOc3ccc(CC(=O)N(C)C4CCOC4)c(F)c3)CC2)n1` (some centres unmarked) [Example 161], the EC50 was found to be 1.1 nM.

In the case of `CC(C)c1noc(N2CCC([C@H]3C[C@H]3CCOc3ccc(CC(=O)N(C)C4CCS(=O)(=O)C4)c(F)c3)CC2)n1` (some centres unmarked) [Example 162], the EC50 came to 2 nM.

With `Cc1nc(CN(C)C(=O)Cc2ccc(OCC[C@@H]3C[C@@H]3C3CCN(c4nc(C(C)C)no4)CC3)cc2F)cs1` [Example 163], the EC50 stood at 2.3 nM.

Take `CC(C)c1noc(N2CCC([C@H]3C[C@H]3CCOc3ccc(CC(=O)N(C)Cc4ccon4)c(F)c3)CC2)n1` [Example 164]: the EC50 is 1.7 nM.

Take `CC(C)c1noc(N2CCC([C@H]3C[C@H]3CCOc3ccc(CC(=O)N(C)C4(C)CCCC4)c(F)c3)CC2)n1` [Example 165]: the EC50 was determined as 8.1 nM.

With `CC(C)c1noc(N2CCC([C@H]3C[C@H]3CCOc3ccc(CC(=O)N(C)Cc4cscn4)c(F)c3)CC2)n1` [Example 166], the EC50 came out at 2.6 nM.

In the case of `CC(C)c1noc(N2CCC([C@H]3C[C@H]3CCOc3ccc(CC(=O)N(C)Cc4cc[nH]n4)c(F)c3)CC2)n1` [Example 167], the 50% effective concentration (EC50) is 3.1 nM.

Consider `CC(C)c1noc(N2CCC([C@H]3C[C@H]3CCOc3ccc(CC(=O)N(C)CCn4cncn4)c(F)c3)CC2)n1` [Example 168], for which the EC50 was determined as 7.9 nM.

Turning to `CC(C)c1noc(N2CCC([C@H]3C[C@H]3CCOc3ccc(CC(=O)N(C)CC4CCC(=O)N4C)c(F)c3)CC2)n1` (some centres unmarked) [Example 169], the EC50 is 7.7 nM.

As to `CC(C)c1noc(N2CCC([C@H]3C[C@H]3CCOc3ccc(CC(=O)N(C)CC4CCC(=O)N4)c(F)c3)CC2)n1` (some centres unmarked) [Example 170], the half-maximal effective concentration (EC50) was 7.9 nM.

For `CC(C)c1noc(N2CCC([C@H]3C[C@H]3CCOc3ccc(CC(=O)N(C)Cc4cncs4)c(F)c3)CC2)n1` [Example 171], the EC50 came out at 1.5 nM.

Turning to `CC(C)c1noc(N2CCC([C@H]3C[C@H]3CCOc3ccc(CC(=O)N(C)C4COC4)c(F)c3)CC2)n1` [Example 172], the EC50 was 0.88 nM.

Take `CC(C)c1noc(N2CCC([C@H]3C[C@H]3CCOc3ccc(CC(=O)N4CCc5ccsc5C4)c(F)c3)CC2)n1` [Example 173]: the EC50 is 2.2 nM.

On to `CC(C)c1noc(N2CCC([C@H]3C[C@H]3CCOc3ccc(CC(=O)N4CCC(C)(O)C4)c(F)c3)CC2)n1` (some centres unmarked) [Example 174], for which the half-maximal effective concentration (EC50) came to 11.4 nM.

Take `CC(C)c1noc(N2CCC([C@H]3C[C@H]3CCOc3ccc(CC(=O)N4CCc5cncnc5C4)c(F)c3)CC2)n1` [Example 175]: the concentration giving a half-maximal response (EC50) is 3.2 nM.

As for `CC(C)c1noc(N2CCC([C@H]3C[C@H]3CCOc3ccc(CC(=O)N4CCn5c(nnc5C5CC5)C4)c(F)c3)CC2)n1` [Example 176], the EC50 was 5.7 nM.

The values are drawn from US8957062B2, “Substituted cyclopropyl compounds, compositions containing such compounds and methods of treatment” (Merck Sharp & Dohme Corp., priority 2011, dated 2015).
